# In patent publication US12534477B2, “Compound having KHK inhibitory effect” (HANGZHOU ZHONGMEIHUADONG PHARMACEUTICAL CO., LTD., priority 2019, dated 2026):
# What was measured:
# [1] = system: fructose metabolism in mice; experiment: Acute fructose feeding experiment in mice; assay type: in vivo; details: compound 10 mpk, oral fructose 1 g/kg
# Experimental: The effect of test compounds on the fructose content in mice with high fructose intake was investigated.
# All animals were acclimated for one week in an animal house, fed with normal chow and fasted for 16 hours before being given fructose.
# 1) The experiment began at −0.5 hr. A control group was given a certain volume of vehicle (a certain proportion of methylcellulose and Tween 80 in water), and an experimental group was given a certain dose of a solution of the compound (the administered volume was consistent with the vehicle).
# 2) 0.5 hour later and before administration of a fructose solution, a blood sample was collected at 0 hr, followed by oral administration of 1 g/kg of an aqueous fructose solution.
# 3) After the administration of fructose, blood samples were collected from saphenous vein of mice at 0.25, 0.5, 1, 2, 3 and 8 hr, and fructose concentration was analyzed by LC-MS/MS.
# [2] = Pharmacokinetic evaluation in SD rats; assay type: in vivo; details: rat, plasma
# Experimental: In vivo pharmacokinetics of compounds in SD rats were tested.
# Pharmacokinetic profiles in rodents following intravenous and oral administration of the compounds were tested by standard protocols. In the experiment, candidate compounds were formulated as clear solutions or homogeneous suspensions, and were administered to rats by single intravenous injection (IV, 1 mpk) and oral administration (PO, 3 mpk). The vehicle for intravenous injection was a certain proportion of PEG400 in water, and the vehicle for oral administration was a certain proportion of methylcellulose and Tween 80 in water. Whole blood was collected, and plasma was prepared. Drug concentration was analyzed by LC-MS/MS, and pharmacokinetic parameters were calculated by Phoenix WinNonlin software.
smiles,measurement,setting,value
C[C@H]1CCN1c1nc(N2C[C@@H]3[C@@H](CC(=O)O)[C@@H]3C2)c2ccsc2n1 [WX004],AUC of integral fructose concentration for dosed group,[1],2194 nM·h
same,AUC of integral fructose concentration of dosed group/AUC of Integral fructose concentration of control group,[1],5.0
same,clearance,"[2]; 1 mg/kg, IV 1 mpk, read-out: Clearance rate",1.21 mL/min/kg
same,bioavailability,"[2]; 3 mg/kg, IV 1 mpk, PO 3 mpk, read-out: Bioavailability F",80%
same,AUC,"[2]; 3 mg/kg, PO 3 mpk, read-out: Integral concentration AUC for PO",64.5 µM·h
same,half-life,"[2]; IV 1 mpk and PO 3 mpk study, read-out: Half-life T1/2 (converted)",2.96 h
